Drawing on paper PMC11425212 (2024), this text covers Kd, binding and ΔTm for one molecule.

The test system of assay [1] is ATF4-G4 (Pu22T) (DNA, G4) TAAGGGAGGGAGGGAAGGGAGC
The assay is described as follows: fluorescence titration. The settings on record: 50 mM K+; 0.2 µM COP, DNA added stepwise; excitation 377 nm, emission 520-600 nm.

Assay [2] has the same test system. As to the kind of experiment: NMR solution structure and 1H NMR titration. The conditions noted are these: 10 mM K+ (structure); 50 mM K+ (titration); pH 7, 25 °C; 2.11 mM DNA with 2.4 equivalents COP.
For assay [3] the test system is unchanged. The assay is described as follows: CD melting at 264 nm. The conditions noted are these: 5 mM K+ (potassium phosphate); pH 7; 20 µM DNA; COP concentration not given.

A word on the ΔTm: it is the shift of the melting midpoint relative to a reference. As for `c1c2c(cc3c1OCO3)-c1cc3ccc4c(c3c[n+]1CC2)OCO4`, the Kd in assay [1] is recorded as ~ 3.9 µM. Moreover, in assay [2], the binding result is “yes”. Besides, the ΔTm in assay [3] turned out to be 25 °C.
